Series [1] concerns SMN2 minigene mRNA (SMN2-A minigene construct). As to the kind of experiment: SMN2 minigene mRNA splicing RT-qPCR assay in cultured cells. Format: cell-based, human. Particulars: Homo sapiens, HEK293-H; HEK293H cells stably transfected with SMN2-A minigene, 24 hours, 7-point concentration data; concentration giving 1.5-fold SMN2 full length mRNA relative to vehicle-treated cells; read-out: EC1.5x for production of full length SMN2 mRNA. The method, boiled down: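 Full-length SMN2 minigene mRNA, measured by exon 7/luciferase-specific RT-qPCR that excludes endogenous SMN1/SMN2, was normalized to GAPDH and expressed relative to vehicle-treated cells via modified ΔΔCt. Stably transfected HEK293H cells received compound (7-point, 3.16-fold series, duplicates) for 24 h at 37 °C.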
A general note: Quantitative PCR measures a nucleic acid by following its amplification.

Series [2] has as its system Smn protein. Put plainly: Smn protein assay (HTRF) in cultured cells (SMA patient fibroblasts GM03813). It is filed as cell-based, human. Particulars: 48 hours; for maximum fold (Fold) increase of Smn protein: SMA patient fibroblast cells, 7-point concentration curve, relative to vehicle control; for EC1.5x for Smn protein expression: SMA patient fibroblast cells (GM03813), HTRF, 7-point concentration data, concentration producing 1.5 times Smn protein vs DMSO vehicle control. The method, boiled down:
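Smn level is expressed as fold over vehicle, from blank-corrected ΔF of the 665/620 nm HTRF ratio. Readout used anti-SMN d2 and kryptate antibodies on RIPA lysates. GM03813 SMA fibroblasts had 48 h exposure at 37° C to seven 3.16-fold compound dilutions, run in triplicate.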
(In general: TR-FRET usually uses a lanthanide donor and a delayed reading to cut background.)

Usually melting point stands for the temperature of the solid-liquid transition. Compound `Cl.O=c1oc2nc(N3CCCNCC3)ccc2cc1-c1nc2ccccc2s1` [Cpd 51, 3-(1,3-benzothiazol-2-yl)-7-(1,4-diazepan-1-yl)-2H-pyrano[2,3-b]pyridin-2-one hydrochloride] yielded a melting point of 284 to 286 °C. In addition, in series [1], the EC (1.5-fold) was 0.3 to 1 µM. Also, the “maximum fold (Fold) increase of Smn protein” value (“maximum fold (Fold) increase” below) in series [2] is “** (a fold increase between >1.2 and ≦1.35 is indicated by two stars (**))”.
Regarding `CCN1CCN(c2ccc3cc(-c4cn5cc(C)ncc5n4)c(=O)oc3n2)C[C@@H]1C` [Cpd 143, 7-[(3S)-4-ethyl-3-methylpiperazin-1-yl]-3-(6methylimidazo-[1,2-a]pyrazin-2-yl)-2H-pyrano[2,3-b]pyridin-2-one], the melting point is 252 to 256 °C. Besides, the EC (1.5-fold) in series [1] is ≤ 0.1 µM. Besides, in series [2], the “EC1.5x for Smn protein expression” value is “*** (an EC1.5× between >0.3 μM and ≦1 μM is indicated by three stars (***))”; the “maximum fold (Fold) increase” value was “**** (a fold increase between >1.5 and ≦1.65 is indicated by four stars (****))”.
In turn, `CCN1CCN(c2ccc3cc(-c4cn5cc(C)cc(F)c5n4)c(=O)oc3n2)CC1` [Cpd 134, 7-(4-ethylpiperazin-1-yl)-3-(8-fluoro-6-methylimidazo[1,2-a]pyridin-2-yl)-2H-pyrano[2,3-b]pyridin-2-one] displayed a melting point of 238 to 242 °C. The EC (1.5-fold) in series [1] is 0.1 to 0.3 µM. For the same compound, in series [2], the “EC1.5x for Smn protein expression” value was “* (An EC1.5× for Smn protein expression between >3 μM and ≦10 μM is indicated by one star (*))”; the “maximum fold (Fold) increase” value was “*** (a fold increase between >1.35 and ≦1.5 is indicated by three stars (***))”.
For the compound `CN1CCCN(c2ccc3cc(-c4cn5ccsc5n4)c(=O)oc3n2)CC1` [Cpd 114, 3-(imidazo[2,1-b][1,3]thiazol-6-yl)-7-(4-methyl-1,4-diazepan-1-yl)-2H-pyrano[2,3-b]pyridin-2-one], the melting point lay in the range of 224 to 226 °C. For the same compound, in series [1], the EC (1.5-fold) is ≤ 0.1 µM. Further, in series [2], the “EC1.5x for Smn protein expression” value is “*** (an EC1.5× between >0.3 μM and ≦1 μM is indicated by three stars (***))”; the “maximum fold (Fold) increase” value was “**** (a fold increase between >1.5 and ≦1.65 is indicated by four stars (****))”.
`Cc1ccn2cc(-c3cc4ccc(N5CCCNCC5)nc4oc3=O)nc2c1` [Cpd 65, 7-(1,4-diazepan-1-yl)-3-(7-methylimidazo[1,2-a]pyridin-2-yl)-2H-pyrano[2,3-b]pyridin-2-one] registered a melting point of 239 to 241 °C. Moreover, the EC (1.5-fold) in series [1] is 0.3 to 1 µM. Further, in series [2], the “EC1.5x for Smn protein expression” value is “**** (an EC1.5×≦0.3 μM is indicated by four stars (****))”; the “maximum fold (Fold) increase” value is “**** (a fold increase between >1.5 and ≦1.65 is indicated by four stars (****))”.
Compound `Cc1ccn2nc(-c3cc4ccc(N5CCN(C)CC5)nc4oc3=O)cc2c1` [Cpd 53, 7-(4-methylpiperazin-1-yl)-3-(5-methylpyrazolo[1,5-a]pyridin-2-yl)-2H-pyrano[2,3-b]pyridin-2-one] returned a melting point of 264 to 268 °C. Besides, the EC (1.5-fold) in series [1] fell in the range of 0.1 to 0.3 µM. The “maximum fold (Fold) increase” value in series [2] is “*** (a fold increase between >1.35 and ≦1.5 is indicated by three stars (***))”.
For `CCN1CCCN(c2ccc3cc(-c4cn5cc(C)ncc5n4)c(=O)oc3n2)CC1` [Cpd 142, 7-(4-ethyl-1,4-diazepan-1-yl)-3-(6-methylimidazo[1,2-a]pyrazin-2-yl)-2H-pyrano[2,3-b]pyridin-2-one], the melting point is 217 to 221 °C. The EC (1.5-fold) in series [1] is ≤ 0.1 µM. In series [2], the “EC1.5x for Smn protein expression” value was “*** (an EC1.5× between >0.3 μM and ≦1 μM is indicated by three stars (***))”; the “maximum fold (Fold) increase” value was “**** (a fold increase between >1.5 and ≦1.65 is indicated by four stars (****))”.
`CCN1CCN(c2ccc3cc(-c4cn5cccc(F)c5n4)c(=O)oc3n2)CC1` [Cpd 132, 7-(4-ethylpiperazin-1-yl)-3-(8-fluoroimidazo[1,2-a]pyridin-2-yl)-2H-pyrano[2,3-b]pyridin-2-one] showed a melting point of 203 to 206 °C. Besides, in series [1], the EC (1.5-fold) is 0.1 to 0.3 µM. Moreover, in series [2], the “maximum fold (Fold) increase” value was “** (a fold increase between >1.2 and ≦1.35 is indicated by two stars (**))”.
With `C[C@@H]1CN[C@@H](C)CN1c1ccc2cc(-c3nc4c(Cl)cccc4s3)c(=O)oc2n1` [Cpd 85, 3-(4-chloro-1,3-benzothiazol-2-yl)-7-[(2R,5S)-2,5-dimethylpiperazin-1-yl]-2H-pyrano[2,3-b]pyridin-2-one], the melting point is 223 to 227 °C. Moreover, the EC (1.5-fold) in series [1] lay within 0.1 to 0.3 µM. In addition, the “maximum fold (Fold) increase” value in series [2] was “** (a fold increase between >1.2 and ≦1.35 is indicated by two stars (**))”.
`Cc1cn2cc(-c3cc4ccc(N5C[C@@H](C)N[C@@H](C)C5)nc4oc3=O)nc2cn1` [Cpd 101, 7-[(3R,5S)-3,5-dimethylpiperazin-1-yl]-3-(6-methylimidazo[1,2-a]pyrazin-2-yl)-2H-pyrano[2,3-b]pyridin-2-one] showed a melting point of 279 to 281 °C. Moreover, the EC (1.5-fold) in series [1] is ≤ 0.1 µM. In addition, in series [2], the “EC1.5x for Smn protein expression” value is “*** (an EC1.5× between >0.3 μM and ≦1 μM is indicated by three stars (***))”; the “maximum fold (Fold) increase” value is “**** (a fold increase between >1.5 and ≦1.65 is indicated by four stars (****))”.
`Cc1cc(F)c2nc(-c3cc4ccc(N5CCCN(C)CC5)nc4oc3=O)cn2c1` [Cpd 113, 3-(8-fluoro-6-methylimidazo[1,2-a]pyridin-2-yl)-7-(4-methyl-1,4-diazepan-1-yl)-2H-pyrano[2,3-b]pyridin-2-one]: the melting point fell in the range of 269 to 273 °C. The EC (1.5-fold) in series [1] is ≤ 0.1 µM. Besides, in series [2], the “EC1.5x for Smn protein expression” value is “*** (an EC1.5× between >0.3 μM and ≦1 μM is indicated by three stars (***))”; the “maximum fold (Fold) increase” value is “**** (a fold increase between >1.5 and ≦1.65 is indicated by four stars (****))”.
Compound `Cc1cn2cc(-c3cc4ccc(N5C[C@@H](C)N[C@@H](C)C5)nc4oc3=O)nc2c(C)n1` [Cpd 90, 3-(6,8-dimethylimidazo[1,2-a]pyrazin-2-yl)-7-[(3R,5S)-3,5-dimethylpiperazin-1-yl]-2H-pyrano[2,3-b]pyridin-2-one] showed a melting point of 279 to 282 °C. Moreover, in series [1], the EC (1.5-fold) was ≤ 0.1 µM. Besides, in series [2], the “EC1.5x for Smn protein expression” value is on record as “**** (an EC1.5×≦0.3 μM is indicated by four stars (****))” and the “maximum fold (Fold) increase” value is recorded as “***** (a fold increase >1.65 is indicated by five stars (*****))”.
Consider `C[C@@H]1CN(c2ccc3cc(-c4cn5cccnc5n4)c(=O)oc3n2)C[C@H](C)N1C` [Cpd 118, 3-(imidazo[1,2-a]pyrimidin-2-yl)-7-[(3R,5S)-3,4,5-trimethylpiperazin-1-yl]-2H-pyrano[2,3-b]pyridin-2-one], for which the melting point was in the range of 286 to 289 °C. In addition, the EC (1.5-fold) in series [1] is 0.1 to 0.3 µM. In series [2], the “EC1.5x for Smn protein expression” value is “** (an EC1.5× between >1 and ≦3 μM is indicated by two stars (**))”; the “maximum fold (Fold) increase” value is “*** (a fold increase between >1.35 and ≦1.5 is indicated by three stars (***))”.

For the origin of these results see patent US9371336B2, “Compounds for treating spinal muscular atrophy” (PTC Therapeutics Inc., priority 2012, dated 2016).
